Experimental data published in patent US20260183405A1, “SMALL MOLECULE-DRUG-CONJUGATES CLEAVABLE IN A TUMOR MICROENVIRONMENT” (priority 2022, published 2026).
Where two headings read alike, the source gives them in different places.

Legend:
786-O = experiment: Cytotoxicity in vitro in the presence and absence of elastase (MTT assay); format: cell-based; settings: 786-O cells, 72 h incubation
Method: (§1) Cultivation of cells was performed according to standard procedures with the media recommended by the provider. The cells, in a total volume of 100 μL, were seeded in a 96-well plate with a white bottom (#3610). After a 24 h incubation period at 37° C. and 5% CO2, the medium was exchanged by adding 90 μL fresh medium. The treatment started by adding the test compound in 10 μL of culture medium to the cells in triplicates. Concentrations ranging from 10^−5 M to 10^−13 M were chosen. Two identically treated sets of samples were prepared. One set was treated with the test compound alone, whereas to the second set the compound and 10 nM elastase (NE) was added followed by a 72 h incubation period at 37° C. and 5% CO2. The proliferation was detected using the MTT assay (ATCC). At the end of the incubation period the MTT reagent was added to all samples for 4h. Lysis of the cells followed by addition of the detergent was done overnight. The formed dye was detected at 570 nm. The proliferation of untreated but otherwise identically handled cells was defined as the 100% value. The dose response curves allowed the determination of the respective IC50 values. […]

HT29 = experiment: as above; format: cell-based; settings: HT29 cells, 72 h incubation
Method: as §1

NCI-H292 = experiment: as above; format: cell-based; settings: NCI-H292 cells, 72 h incubation
Method: as §1

SUM149PT = experiment: as above; format: cell-based; settings: SUM149PT cells, 72 h incubation
Method: as §1

[1] = Pharmacokinetics in rat after intravenous administration; format: in vivo; settings: plasma, male rats, intravenous bolus 0.5 mg/kg; for clearance: read-out: CL plasma; for Vd: read-out: VSS
Method: Male rats (n=3) were given an intravenous 0.5 mg/kg bolus dose of test article dissolved in plasma with 1% DMSO and 2% ethanol. Serial blood samples were collected up to 24 hours post-dose. Plasma was harvested from blood samples and stored frozen until sample analysis. Test article plasma concentrations were analyzed by LC/MS/MS. Pharmacokinetic parameters were calculated using non-compartmental analysis.

[2] = compound alone, read-out: IC50 without neutrophil elastase
[3] = with 10 nM elastase (NE), read-out: IC50 with neutrophil elastase

Row | Structure (SMILES) | IC50 (786-O; [2]) [nM] | IC50 (786-O; [3]) [nM] | IC50 (HT29; [2]) [nM] | IC50 (HT29; [3]) [nM] | IC50 (NCI-H292; [2]) [nM] | IC50 (NCI-H292; [3]) [nM] | IC50 (SUM149PT; [2]) [nM] | IC50 (SUM149PT; [3]) [nM] | AUC [1] [ng·h/mL] | half-life [1] [h] | clearance [1] [mL/min/kg] | Vd [1] [L/kg]
1 | CCCNC(=O)Nc1cccc(S(=O)(=O)Nc2cccc([C@@H](CC(=O)O)NC(=O)Nc3ccc(NC(=O)NCCOCCOCCOCCC(=O)N[C@@H](CC(=O)O)C(=O)N4CCC[C@H]4C(=O)N[C@H](C(=O)OC(C)(C)CCNC(=O)[C@H](Cc4ccccc4)NC(=O)[C@H](C)[C@@H](OC)[C@@H]4CCCN4C(=O)C[C@@H](OC)[C@H]([C@@H](C)CC)N(C)C(=O)[C@@H](NC(=O)[C@H](C(C)C)N(C)C)C(C)C)C(C)C)cc3)c2)c1 [Compound 32] | 100 to 999 | 10 to 99 | 10 to 99 | 1 to 9.9 | 10 to 99 | 1 to 9.9 | 10 to 99 | 1 to 9.9 |  |  |  | 
2 | CC(C)[C@H](NC(=O)[C@@H]1CCCN1C(=O)[C@H](CC(=O)O)NC(=O)CCOCCOCCOCCNC(=O)CCC(=O)Nc1nnc(S(N)(=O)=O)s1)C(=O)N=[S@](C)(=O)Cc1cc2nc(c1)OCCCOc1cc(F)ccc1-c1cc(ncc1F)N2 (relative stereo) [Compound 10, sodium 1-{(2S)-2-(carboxylatomethyl)-4,17,20-trioxo-20-[(5-sulfamoyl-1,3,4-thiadiazol-2-yl)amino]-7,10,13-trioxa-3,16-diazaicosanan-1-oyl}-L-prolyl-N—[(R*)—{[15,19-difluoro-3,4-dihydro-2H,11H-10,6-(azeno)-12,16-(metheno)-1,5,11,13-benzodioxadiazacyclooctadecin-8-yl]methyl}(methyl)oxo-lambda6-sulfanylidene]-L-valinamide] | > 1000 | 1 to 9.9 | > 1000 | 1 to 9.9 | 100 to 999 | 1 to 9.9 | 100 to 999 | 1 to 9.9 |  |  |  | 
3 | CCCNC(=O)Nc1cccc(S(=O)(=O)Nc2cccc([C@@H](CC(=O)O)NC(=O)Nc3ccc(NC(=O)NCCOCCOCCOCCC(=O)NCCCC[C@H](NC(=O)CCOCCOCCOCCNC(=O)Nc4ccc(NC(=O)N[C@H](CC(=O)O)c5cccc(NS(=O)(=O)c6cccc(NC(=O)NCCC)c6)c5)cc4)C(=O)NCCOCCOCCOCCC(=O)N[C@@H](CC(=O)O)C(=O)N4CCC[C@H]4C(=O)N[C@H](C(=O)N[C@@H](CCN(C(=O)CO)[C@@H](c4cc(-c5cc(F)ccc5F)cn4Cc4ccccc4)C(C)(C)C)C(=O)NC)C(C)C)cc3)c2)c1 [Compound 27] |  |  |  |  |  |  |  |  | 100000 to 500000 | 10 to 40 | 0.02 to 0.5 | 0.01 to 0.1
4 | CCc1c2c(nc3ccccc13)-c1cc3c(c(=O)n1C2)COC(=O)[C@@]3(CC)OC(=O)[C@@H](NC(=O)[C@@H]1CCCN1C(=O)[C@H](CC(=O)[O-])NC(=O)CCOCCOCCOCCNC(=O)[C@H](CCCCNC(=O)CCOCCOCCOCCNC(=O)CCC(=O)Nc1cccc2c(C(=O)NCC(=O)N3CC(F)(F)C[C@H]3C#N)ccnc12)NC(=O)CCOCCOCCOCCNC(=O)CCC(=O)Nc1cccc2c(C(=O)NCC(=O)N3CC(F)(F)C[C@H]3C#N)ccnc12)C(C)C.[Na+] [Compound 20, sodium (4S)-4,11-diethyl-3,14-dioxo-3,4,12,14-tetrahydro-1H-pyrano[3′,4′:6,7]indolizino[1,2-b]quinolin-4-yl 1-[(2S)-15-{[N2,N6-bis(17-{[4-({2-[(2S)-2-cyano-4,4-difluoropyrrolidin-1-yl]-2-oxoethyl}carbamoyl)quinolin-8-yl]amino}-14,17-dioxo-4,7,10-trioxa-13-azaheptadecanan-1-oyl}-L-lysyl]amino)-2-(carboxylatomethyl)-4-oxo-7,10,13-trioxa-3-azapentadecanan-1-oyl]-L-prolyl-L-valinate] | > 1000 | 1 to 9.9 | > 1000 | 10 to 99 | 100 to 999 | 1 to 9.9 |  |  | 1000 to 10000 | 0.5 to 1 | 0.5 to 5 | 0.1 to 0.3
5 | CCc1c2c(nc3ccccc13)-c1cc3c(c(=O)n1C2)COC(=O)[C@@]3(CC)OC(=O)[C@@H](NC(=O)[C@@H]1CCCN1C(=O)[C@H](CC(=O)O)NC(=O)CCOCCOCCOCCNC(=O)NCCCC[C@H](NC(=O)N[C@@H](CCC(=O)O)C(=O)O)C(=O)O)C(C)C [Compound 5, tetrasodium (4S)-4,11-diethyl-3,14-dioxo-3,4,12,14-tetrahydro-1H-pyrano[3′,4′:6,7]indolizino[1,2-b]quinolin-4-yl 1-[(2S,23S,27S)-23,27,29-tricarboxylato-2-(carboxylatomethyl)-4,17,25-trioxo-7,10,13-trioxa-3,16,18,24,26-pentaazanonacosanan-1-oyl]-L-prolyl-L-valinate] |  |  |  |  |  |  |  |  | 1000 to 10000 | 1 to 5 | 0.5 to 5 | 0.1 to 0.3
6 | CCCNC(=O)Nc1cccc(S(=O)(=O)Nc2cccc([C@@H](CC(=O)O)NC(=O)Nc3ccc(NC(=O)NCCOCCOCCOCCC(=O)N[C@@H](CC(=O)O)C(=O)N4CCC[C@H]4C(=O)N[C@H](C(=O)NCCCN(C(=O)CO)[C@@H](c4cc(-c5cc(F)ccc5F)cn4Cc4ccccc4)C(C)(C)C)C(C)C)cc3)c2)c1 [Compound 25, disodium 1-[(2S)-2-(carboxylatomethyl)-17-{4-[({(1R)-2-carboxylato-1-[3-({3-[(propylcarbamoyl)amino]benzene-1-sulfonyl}amino)phenyl]ethyl}carbamoyl)amino]anilino}-4,17-dioxo-7,10,13-trioxa-3,16-diazaheptadecanan-1-oyl]-L-prolyl-N-{3-[({1R)-1-[1-benzyl-4-(2,5-difluorophenyl)-1H-pyrrol-2-yl]-2,2-dimethylpropyl}(hydroxyacetyl)amino]propyl}-L-valinamide] |  |  | > 1000 | 1 to 9.9 | > 1000 | 10 to 99 | > 1000 | 1 to 9.9 |  |  |  | 
7 | CCc1c2c(nc3ccccc13)-c1cc3c(c(=O)n1C2)COC(=O)[C@@]3(CC)OC(=O)[C@@H](NC(=O)[C@@H]1CCCN1C(=O)[C@H](CC(=O)O)NC(=O)CCOCCOCCOCCNC(=O)CCC(=O)Nc1cccc2c(C(=O)NCC(=O)N3CC(F)(F)C[C@H]3C#N)ccnc12)C(C)C [Compound 6, sodium (4S)-4,11-diethyl-3,14-dioxo-3,4,12,14-tetrahydro-1H-pyrano[3′,4′:6,7]indolizino[1,2-b]quinolin-4-yl 1-[(2S)-2-(carboxylatomethyl)-20-{[4-({2-[(2S)-2-cyano-4,4-difluoropyrrolidin-1-yl]-2-oxoethyl}carbamoyl)quinolin-8-yl]amino}-4,17,20-trioxo-7,10,13-trioxa-3,16-diazaicosanan-1-oyl]-L-prolyl-L-valinate] |  |  |  |  |  |  |  |  | < 1000 | < 0.5 | > 5 | 0.3 to 0.9
8 | CCc1c2c(nc3ccccc13)-c1cc3c(c(=O)n1C2)COC(=O)[C@@]3(CC)OC(=O)[C@@H](NC(=O)[C@@H]1CCCN1C(=O)[C@H](CC(=O)[O-])NC(=O)CCOCCOCCOCCNC(=O)CCCC(=O)NCCCC[C@H](NC(=O)CCOCCOCCOCCNC(=O)CCC(=O)Nc1cccc2c(C(=O)NCC(=O)N3CC(F)(F)C[C@H]3C#N)ccnc12)C(=O)NCCCCCCCC(=O)[O-])C(C)C.[Na+].[Na+] [Compound 21, disodium (4S)-4,11-diethyl-3,14-dioxo-3,4,12,14-tetrahydro-1H-pyrano[3′,4′:6,7]indolizino[1,2-b]quinolin-4-yl 1-[(2S,27S)-27-[(7-carboxylatoheptyl)carbamoyl]-2-(carboxylatomethyl)-45-{[4-({2-[(2S)-2-cyano-4,4-difluoropyrrolidin-1-yl]-2-oxoethyl}carbamoyl)quinolin-8-yl]amino}-4,17,21,29,42,45-hexaoxo-7,10,13,32,35,38-hexaoxa-3,16,22,28,41-pentaazapentatetracontanan-1-oyl]-L-prolyl-L-valinate] | > 1000 | 1 to 9.9 | > 1000 | 10 to 99 | 100 to 999 | 1 to 9.9 |  |  | 1000 to 10000 | 0.5 to 1 | 0.5 to 5 | 0.1 to 0.3
9 | CCCNC(=O)Nc1cccc(S(=O)(=O)Nc2cccc([C@@H](CC(=O)O)NC(=O)Nc3ccc(NC(=O)NCCOCCOCCOCCC(=O)NCCCC[C@H](NC(=O)CCOCCOCCOCCNC(=O)Nc4ccc(NC(=O)N[C@H](CC(=O)O)c5cccc(NS(=O)(=O)c6cccc(NC(=O)NCCC)c6)c5)cc4)C(=O)NCCOCCOCCOCCC(=O)N[C@@H](CC(N)=O)C(=O)N4CCC[C@H]4C(=O)N[C@H](C(=O)NCCCN(C(=O)CO)[C@@H](c4cc(-c5cc(F)ccc5F)cn4Cc4ccccc4)C(C)(C)C)C(C)C)cc3)c2)c1 [Compound 18] |  |  |  |  |  |  |  |  | 100000 to 500000 | 10 to 40 | 0.02 to 0.5 | 0.01 to 0.1
